“And” between values parts separate entries of the source, which are not always exact repeats. Identical values can stand only once.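 Tested at 5 concentrations; 48 h exposure; 96-well plates; endpoints linearly interpolated, else capped at highest concentration. GI50 = concentration required for 50% inhibition of growth. TGI marks complete inhibition of growth.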
Key:
Assay in all cases: NCI tumour cell line growth inhibition, 48 h
ACHN renal = tested on: ACHN renal
NCI-H23 lung = tested on: NCI-H23 lung
SNB-75 CNS = tested on: SNB-75 CNS
M14 melanoma = tested on: M14 melanoma
NCI-H226 lung = tested on: NCI-H226 lung
HCT-15 colon = tested on: HCT-15 colon
A549 NSCLC = tested on: A549 NSCLC
HT29 colon = tested on: HT29 colon
NCI/ADR-RES ovarian = tested on: NCI/ADR-RES ovarian
UACC-257 melanoma = tested on: UACC-257 melanoma
HS 578T breast = tested on: HS 578T breast

With CCCCN(CC)c1nc(C)nc2c1c(C)c(C)n2-c1c(C)cc(C)cc1C the TGI (ACHN renal) was 28.1 µM, the TGI (NCI-H23 lung) was 28.2 µM and the TGI (SNB-75 CNS) was 27.4 µM. It also gave a TGI (M14 melanoma) of 35.6 µM, a TGI (NCI-H226 lung) of 30.1 µM and a TGI (HCT-15 colon) of 27.6 µM. The TGI (A549 NSCLC) was 30.2 µM, the TGI (HT29 colon) was 22.6 µM and the TGI (NCI/ADR-RES ovarian) was 27.6 µM. For the same molecule, the TGI (UACC-257 melanoma) was 26.9 µM and the TGI (HS 578T breast) was 38 µM.
With O=c1[nH]c2nc3ccccc3c(=O)n2/c1=C/c1ccc(O)cc1 the TGI (ACHN renal) was greater than 100 µM, the TGI (NCI-H23 lung) was greater than 100 µM and the TGI (SNB-75 CNS) was greater than 100 µM. For the same molecule, the TGI (M14 melanoma) was greater than 100 µM, the TGI (NCI-H226 lung) was greater than 100 µM and the TGI (HCT-15 colon) was greater than 100 µM. For the same molecule, the TGI (A549 NSCLC) was greater than 100 µM, the TGI (HT29 colon) was 72 µM and the TGI (NCI/ADR-RES ovarian) was greater than 100 µM. It also gave a TGI (UACC-257 melanoma) greater than 100 µM and a TGI (HS 578T breast) of 69.7 µM.
Molecule C=CC(=O)c1ccc2c(c1)OCCOCCOCCOCCOCCO2 has a TGI (ACHN renal) of 31.9 µM, a TGI (NCI-H23 lung) greater than 64.2 µM and a TGI (SNB-75 CNS) greater than 91.6 µM. For the same molecule, the TGI (M14 melanoma) was 41.6 µM, the TGI (NCI-H226 lung) was greater than 100 µM and the TGI (HCT-15 colon) was 39.2 µM. It also gave a TGI (A549 NSCLC) greater than 100 µM, a TGI (HT29 colon) greater than 56.5 µM and a TGI (NCI/ADR-RES ovarian) of 54 µM. For the same molecule, the TGI (UACC-257 melanoma) was 35.6 µM and the TGI (HS 578T breast) was greater than 100 µM.
Molecule O=c1oc2ccccc2c(O)c1C(c1cc(OCc2ccccc2)cc(OCc2ccccc2)c1)c1c(O)c2ccccc2oc1=O has a TGI (ACHN renal) of 7.99 µM, a TGI (NCI-H23 lung) of 23.1 µM and a TGI (SNB-75 CNS) of 17 µM. The TGI (M14 melanoma) was 23 µM, the TGI (NCI-H226 lung) was greater than 45.3 µM and the TGI (HCT-15 colon) was 11.8 µM. It also gave a TGI (A549 NSCLC) greater than 56.4 µM, a TGI (HT29 colon) of 33.5 µM and a TGI (NCI/ADR-RES ovarian) of 83.9 µM. The TGI (UACC-257 melanoma) was 38.2 µM and the TGI (HS 578T breast) was 89.3 µM.
Cc1c(S(=O)(=O)c2ccccc2)c(N)n(Cc2ccccc2)c1C was tested, and the TGI (ACHN renal) was greater than 100 µM, the TGI (NCI-H23 lung) was greater than 100 µM and the TGI (SNB-75 CNS) was greater than 100 µM. The TGI (M14 melanoma) was greater than 100 µM, the TGI (NCI-H226 lung) was greater than 100 µM and the TGI (HCT-15 colon) was greater than 100 µM. The TGI (A549 NSCLC) was greater than 100 µM, the TGI (HT29 colon) was greater than 100 µM and the TGI (NCI/ADR-RES ovarian) was greater than 100 µM. The TGI (UACC-257 melanoma) was greater than 100 µM and the TGI (HS 578T breast) was greater than 100 µM.
O=c1c2ccccc2[nH]c(=S)n1-c1ccc(N=Nc2cccc3c(O)cccc23)cc1 showed a TGI (ACHN renal) greater than 100 µM, a TGI (NCI-H23 lung) greater than 100 µM and a TGI (SNB-75 CNS) greater than 100 µM. It also gave a TGI (M14 melanoma) greater than 100 µM, a TGI (NCI-H226 lung) greater than 100 µM and a TGI (HCT-15 colon) greater than 100 µM. The TGI (A549 NSCLC) was greater than 100 µM, the TGI (HT29 colon) was greater than 100 µM and the TGI (NCI/ADR-RES ovarian) was greater than 100 µM. It also gave a TGI (UACC-257 melanoma) greater than 100 µM and a TGI (HS 578T breast) greater than 100 µM.
O=C(Cc1nc2ccc(C(=O)c3ccccc3)cc2[nH]c1=O)C(=O)Nc1ccc(Br)cc1 was tested, and the TGI (ACHN renal) was greater than 100 µM, the TGI (NCI-H23 lung) was greater than 100 µM and the TGI (SNB-75 CNS) was greater than 100 µM. It also gave a TGI (M14 melanoma) greater than 100 µM, a TGI (NCI-H226 lung) greater than 100 µM and a TGI (HCT-15 colon) greater than 100 µM. It also gave a TGI (A549 NSCLC) greater than 100 µM, a TGI (HT29 colon) greater than 100 µM and a TGI (NCI/ADR-RES ovarian) greater than 100 µM. For the same molecule, the TGI (UACC-257 melanoma) was greater than 100 µM and the TGI (HS 578T breast) was greater than 100 µM.
For COc1ccc(-c2c(C#N)c(S)n(C3OC(COC(C)=O)C(OC(C)=O)C(OC(C)=O)C3OC(C)=O)c(=O)c2C#N)cc1 (centres undefined), the TGI (ACHN renal) was greater than 100 µM, the TGI (NCI-H23 lung) was greater than 100 µM and the TGI (SNB-75 CNS) was 60.6 µM and 89 µM. The TGI (M14 melanoma) was greater than 100 µM, the TGI (NCI-H226 lung) was greater than 100 µM and the TGI (HCT-15 colon) was greater than 100 µM. For the same molecule, the TGI (A549 NSCLC) was greater than 100 µM, the TGI (HT29 colon) was greater than 100 µM and the TGI (NCI/ADR-RES ovarian) was greater than 100 µM. The GI50 (UACC-257 melanoma) was > 100 µM and 19.8 µM, the TGI (UACC-257 melanoma) was > 100 µM and 42 µM and the TGI (HS 578T breast) was 93.7 µM and 95.5 µM.
For Cc1ccc2c(c1C)CC1(Cc3c(ccc4c3CCC4)C1=O)C2=O (centres undefined), the TGI (ACHN renal) was greater than 100 µM, the TGI (NCI-H23 lung) was greater than 100 µM and the TGI (SNB-75 CNS) was greater than 100 µM. The TGI (M14 melanoma) was greater than 100 µM, the TGI (NCI-H226 lung) was greater than 100 µM and the TGI (HCT-15 colon) was greater than 100 µM. The TGI (A549 NSCLC) was greater than 100 µM, the TGI (HT29 colon) was greater than 100 µM and the TGI (NCI/ADR-RES ovarian) was greater than 100 µM. For the same molecule, the TGI (UACC-257 melanoma) was greater than 100 µM and the TGI (HS 578T breast) was greater than 100 µM.
Cc1ccc(N=Nc2c3c(c(O)c4ccccc24)CCC(C)(C)O3)cc1 was tested, and the TGI (ACHN renal) was 62.1 µM, the TGI (NCI-H23 lung) was 28.6 µM and the TGI (SNB-75 CNS) was 36 µM. It also gave a TGI (M14 melanoma) of 32.6 µM, a TGI (NCI-H226 lung) greater than 100 µM and a TGI (HCT-15 colon) of 67.3 µM. For the same molecule, the TGI (A549 NSCLC) was 31.8 µM, the TGI (HT29 colon) was 35.7 µM and the TGI (NCI/ADR-RES ovarian) was greater than 100 µM. The TGI (UACC-257 melanoma) was 23 µM and the TGI (HS 578T breast) was 84.4 µM.
For c1cc2nnc1SCCSCCSc1ccc(nn1)SCCSCCS2, the TGI (ACHN renal) was greater than 100 µM, the TGI (NCI-H23 lung) was greater than 100 µM and the TGI (SNB-75 CNS) was 77.3 µM. The TGI (M14 melanoma) was greater than 100 µM, the TGI (NCI-H226 lung) was greater than 100 µM and the TGI (HCT-15 colon) was greater than 100 µM. For the same molecule, the TGI (A549 NSCLC) was greater than 100 µM, the TGI (HT29 colon) was greater than 100 µM and the TGI (NCI/ADR-RES ovarian) was greater than 100 µM. For the same molecule, the TGI (UACC-257 melanoma) was greater than 100 µM and the TGI (HS 578T breast) was greater than 100 µM.
Work on c1ccc([P+](CCNCCNCC[P+](c2ccccc2)(c2ccccc2)c2ccccc2)(c2ccccc2)c2ccccc2)cc1 yielded a TGI (ACHN renal) greater than 100 µM, a TGI (NCI-H23 lung) greater than 100 µM and a TGI (SNB-75 CNS) greater than 100 µM. For the same molecule, the TGI (M14 melanoma) was greater than 100 µM, the TGI (NCI-H226 lung) was greater than 100 µM and the TGI (HCT-15 colon) was greater than 100 µM. It also gave a TGI (A549 NSCLC) greater than 100 µM, a TGI (HT29 colon) greater than 100 µM and a TGI (NCI/ADR-RES ovarian) greater than 100 µM. For the same molecule, the TGI (UACC-257 melanoma) was greater than 100 µM and the TGI (HS 578T breast) was greater than 100 µM.
Molecule O=C(/C(=C(/Br)I)c1ccccc1)c1ccccc1 has a TGI (ACHN renal) of 71.2 µM, a TGI (NCI-H23 lung) greater than 100 µM and a TGI (SNB-75 CNS) of 71 µM. For the same molecule, the TGI (M14 melanoma) was 31 µM, the TGI (NCI-H226 lung) was 40.4 µM and the TGI (HCT-15 colon) was 79.3 µM. For the same molecule, the TGI (A549 NSCLC) was greater than 100 µM, the TGI (HT29 colon) was 36.1 µM and the TGI (NCI/ADR-RES ovarian) was 37.4 µM. For the same molecule, the TGI (UACC-257 melanoma) was 43.8 µM and the TGI (HS 578T breast) was greater than 100 µM.
COc1ccc(Nc2c(C#N)c3n(c4ccccc24)c2ccccc2[n+]3C)cc1OC showed a TGI (ACHN renal) of 7.86 µM, a TGI (NCI-H23 lung) of 19.3 µM and a TGI (SNB-75 CNS) of 9.52 µM. It also gave a TGI (M14 melanoma) of 8.01 µM, a TGI (NCI-H226 lung) of 10.4 µM and a TGI (HCT-15 colon) of 6.5 µM. The TGI (A549 NSCLC) was 14.9 µM, the TGI (HT29 colon) was 23 µM and the TGI (NCI/ADR-RES ovarian) was 17.6 µM. It also gave a TGI (UACC-257 melanoma) of 17 µM and a TGI (HS 578T breast) of 11.3 µM.
COC(=O)C(=O)CC(=O)CCn1ncc(Cl)c(Cl)c1=O showed a TGI (ACHN renal) of 34.9 µM, a TGI (NCI-H23 lung) of 26.9 µM and a TGI (SNB-75 CNS) of 35.6 µM. For the same molecule, the TGI (M14 melanoma) was 26.7 µM, the TGI (NCI-H226 lung) was 39.3 µM and the TGI (HCT-15 colon) was 15.7 µM. For the same molecule, the TGI (A549 NSCLC) was 36.5 µM, the TGI (HT29 colon) was 15 µM and the GI50 (NCI/ADR-RES ovarian) was 18.6 µM. The TGI (NCI/ADR-RES ovarian) was 44.1 µM, the TGI (UACC-257 melanoma) was 25.8 µM and the GI50 (HS 578T breast) was 27.3 µM. The TGI (HS 578T breast) was 87.5 µM.
CCOC(=O)c1sc2nc(SC)nc3c2c1N=CN3c1ccc(Br)cc1 was tested, and the TGI (ACHN renal) was greater than 100 µM, the TGI (NCI-H23 lung) was greater than 100 µM and the TGI (SNB-75 CNS) was greater than 100 µM. For the same molecule, the TGI (M14 melanoma) was greater than 100 µM, the TGI (NCI-H226 lung) was greater than 100 µM and the TGI (HCT-15 colon) was greater than 100 µM. The TGI (A549 NSCLC) was greater than 100 µM, the TGI (HT29 colon) was greater than 100 µM and the TGI (NCI/ADR-RES ovarian) was greater than 100 µM. It also gave a TGI (UACC-257 melanoma) greater than 100 µM and a TGI (HS 578T breast) greater than 100 µM.

Reference: PubChem BioAssay (NCI)
